{
  "source": "patent EP1773779B1",
  "about": "“NICOTINIC RECEPTOR AGONISTS FOR THE TREATMENT OF INFLAMMATORY DISEASES” (Université Laval, priority 2004, dated 2006)",
  "key": {"[1]": {"system": "Ovalbumin-sensitized mice", "assay": "Lung inflammation in ovalbumin-sensitized mice (cells in broncho-alveolar lavage)", "type": "in vivo", "settings": "intra-nasally 0.5 to 4 mg/kg/d for 3 days, n = 8, Fig. 30", "procedure": "Ovalbumin-sensitized mice (ri=8) were challenged with the allergen and simultaneously treated intra-nasally with increasing concentrations of ASM-002 (0.5 to 4 mg/kg/d) for 3 days. The number of cells recovered by broncho-alveolar lavage was used as a measure of lung inflammation."}, "[2]": {"system": "bronchial rings from dog's lungs", "assay": "Isometric study on dog bronchial rings pre-contracted with metacholine", "settings": "cumulative doses of ASM-002; Fig. 35, p=0.004", "procedure": "(§1) As described previously, tracheal or bronchial rings were mounted isometrically to force transducers in organ baths containing Krebs bicarbonate solution at 37°C and bubbled with 95% O2- 5% CO2,pre-contracted with submaximal concentration of metacholine cumulative doses of ASM-002 added. Changes of tension are recorded."}, "[3]": {"system": "dogs naturally sensitized to the roundworm Ascaris suum", "assay": "Dog model of lung hyper-responsiveness (metacholine, lung resistance)", "type": "in vivo", "settings": "12 hyperresponsive dogs, increasing concentrations of metacholine; Fig. 33", "procedure": "(§2) In this model 12 dogs naturally sensitized to the roundworm Ascaris suum were used in a cross-over study design. Four groups of 3 dogs were randomly formed, exposed to the allergen, and each animal was left either untreated or received alternalively, ASM-002 (4mg/kg 2x day in the food), or prednisone (1mg/kg 1x day in the food), the most commonly used corticosteroid drug used to treat inflammation in asthma.\nHyper-responsiveness is described as the capacity of the lung to react (to increase lung resistance) to a non-specific external stimuli like metacholine or to allergens. A hyper-responsive allergen-sensitized dog (asthmatic) will react to lower concentrations of metacholine compared to a non allergic dog. Similarly, improvement in lung hyper-responsivenes is shown by an increase in metacholine concentrations necessary to induce the same level of lung resistance.\nIncreasing concentrations of metacholine were administered with or without treatment with ASM-002 or Prednisone™ and lung resistance recorded."}, "[4]": {"system": "bronchial rings from resected human lungs", "assay": "Isometric study on human bronchial rings pre-contracted with metacholine", "settings": "cumulative doses of ASM-002; Fig. 36", "procedure": "as §1"}, "[5]": {"system": "dogs naturally sensitized to the roundworm Ascaris suum", "assay": "Dog asthma model: cellular inflammation in bronchoalveolar lavages", "type": "in vivo", "settings": "ASM-002 8 mg/kg (4mg/kg 2x day in the food), prednisone 1mg/kg 1x day in the food, n = 12; Fig. 32", "procedure": "as §2\nCellular inflammation was evaluated in the bronchoalveolar lavages."}, "[6]": {"system": "Tumor necrosis factor (TNF) release", "assay": "TNF release by LPS-stimulated human blood monocytes (ELISA)", "type": "cell-based", "procedure": "Human monocytes were isolated from the blood of asthmatic patients by Ficoll-paque density gradient, let to adhere to tissue culture plates and stimulated with LPS (100ng/ml) for 18 hours at 37°C with or without increasing concentrations of nicotine. The release of TNF, a potent pro-inflammatory mediator, was measured in the cell culture supernatant by the ELISA method. Results are expressed as a percentage release from LPS-stimulated untreated cells (Fig. 28).\nTumor necrosis factor (TNF) is a mediator released in inflammatory states. Human blood monocytes were stimulated in vitro with lipopolysaccharide (LPS) to produce large amounts of TNF, increasing doses of ASM-002 were added and the levels of TNF were measured (Fig. 37, EC50= 3µM, n=6, p= 0,0045 at 5 µm, 0,0014 at 10 µm and 0,0003 at 50 µm)."}, "[7]": {"system": "mouse tracheal airway smooth muscle", "assay": "Isometric study on isolated mouse tracheal rings pre-contracted with metacholine", "settings": "cumulative doses of ASM-002; Fig. 34, p=0.002", "procedure": "Tracheal rings were mounted isometrically to force transducers in organ baths containing Krebs bicarbonate solution at 37°C and bubbled with 95% O2- 5% CO2, pre-contracted with submaximal concentration of metacholine (10^-5) and cumulative doses of the analogs were added to the baths. Changes of tension are recorded. Results are expressed as a percentage of maximal contraction (Fig. 29).\nas §1"}, "[8]": {"system": "Leukotriene C4 (LTC4)production", "assay": "LTC4 production by PAF-stimulated blood eosinophils (enzyme immunoassay)", "type": "cell-based, Human", "settings": "for LTC4: pre-incubated 18hours with analogs, then 1 µM PAF, untreated 1725.80", "procedure": "Blood eosinophils, the most increased inflammatory cells in asthma, were isolated by negative selection using bead-conjugated anti-CD16 monoclonal antibody and magnetic activating cell sorting. Cells were pre-incubated for 18hours with the various DMPP analogs and then stimulated with 1 µM platelet-activating factor (PAF) to produce LTC4 which was measured by enzyme immunoassay. […] Table 1 Effects of DMPP and analogs on LTC4 release.\nLeukotriene C4 (LTC4) is a inflammatory lipid mediator highly produced in asthma, it is released in large amounts by blood eosinophils.\nHuman blood eosinophils were isolated from blood of asthmatic patients, stimulated in vitro with platelet activating factor (PAF) to produce large amounts of LTC4 , and treated or not with 80 µM ASM-002."}, "[9]": {"system": "Ovalbumin-sensitized animals", "assay": "Lung resistance to metacholine in mouse model of asthma (Flexi-vent)", "type": "in vivo, mice", "settings": "ASM-002 4mg/kg intra-nasally 3 days and 10 minutes prior to challenge; Salbutamol 10 minutes before; Fig. 31", "procedure": "Lung response to a broncho-constrictive agent, metacholine, was measured by a Flexi-vent® apparatus. Ovalbumin-sensitized animals were treated intra-nasally with ASM-002 (4mg/kg) during 3 days and 10 minutes prior to the metacholine challenge and compared to untreated OVA-sensitized animals. A negative control group of un-sensitized animals and a positive control group that received Salbutamol (Ventolin) 10 minutes before the metacholine challenge were also included."}},
  "data": [
    {"compound": "1,1-dimethyl-4-phenylhomopiperazinium iodide [ASM-002]", "values": [
      {"measurement": "ED50, cellular inflammation in the lungs", "setting": "[1]", "result": 0.71, "unit": "mg/kg"},
      {"measurement": "relaxing effect on pre-contracted bronchi", "setting": "[2]", "result": "relaxing effect"},
      {"measurement": "dogs with decreased lung resistance / improved hyper-responsiveness", "setting": "[3]", "result": "7 out of 12"},
      {"measurement": "relaxing effect on pre-contracted bronchi", "setting": "[4]", "result": "relaxing effect"},
      {"measurement": "cellular inflammation in the lungs", "setting": "[5]", "result": "inhibits significantly the cellular inflammation"},
      {"measurement": "EC50", "setting": "[6]; LPS-stimulated human blood monocytes, increasing doses, n=6, Fig. 37, read-out: EC50, inhibition of TNF release", "result": 3000, "unit": "nM"},
      {"measurement": "TNF release", "setting": "[6]; all drugs at 40 µM, mean of 5 subjects, Fig. 38", "result": "inhibits TNF release"},
      {"measurement": "relaxing effect on pre-contracted tracheas", "setting": "[7]", "result": "relaxing effect"},
      {"measurement": "LTC4 production", "setting": "[8]; 80 µM, PAF-stimulated eosinophils of asthmatic patients, 6 patients, Fig. 39, p=0.0007", "result": "significant inhibition"},
      {"measurement": "LTC4", "setting": "[8]", "result": 246.40, "unit": "pg/mL"},
      {"measurement": "lung resistance induced by metacholine", "setting": "[9]", "result": "significant reduction (return to baseline levels)"}
    ]},
    {"compound": "CCC[N+]1(C)CCN(c2ccccc2)CC1", "note": "[ASM-004]", "values": [
      {"measurement": "LTC4", "setting": "[8]", "result": 601.60, "unit": "pg/mL"}
    ]},
    {"compound": "CC[N+]1(CC)CCN(c2ccccc2)CC1", "note": "[ASM-005]", "values": [
      {"measurement": "TNF release", "setting": "[6]; monocytes from asthmatic patients, LPS (100ng/ml) 18 hours at 37°C, increasing concentrations, Fig. 28", "result": "Except for ASM-005, all analogs tested had an inhibitory effect on TNF release"}
    ]},
    {"compound": "C[N+]1(C)CCN(c2ccccc2)CC1", "note": "[DMPP, Dimethylphenylpiperazinium, reference compound]", "values": [
      {"measurement": "LTC4", "setting": "[8]", "result": 545.00, "unit": "pg/mL"}
    ]},
    {"compound": "C[C@]12C=CC(=O)C=C1CC[C@@H]1[C@@H]2C(=O)C[C@@]2(C)[C@H]1CC[C@]2(O)C(=O)CO", "note": "[Prednisone, prednisone, reference compound]", "values": [
      {"measurement": "dogs with decreased lung resistance / improved hyper-responsiveness", "setting": "[3]", "result": "None of the 12 dogs"}
    ]},
    {"compound": "CC(C)(C)NCC(O)c1ccc(O)c(CO)c1", "note": "(stereo not shown) [Salbutamol, reference compound]", "values": [
      {"measurement": "lung resistance induced by metacholine", "setting": "[9]", "result": "This effect is similar to that obtained with Salbutamol"}
    ]}
  ]
}
